# How the values were obtained:
# [1] = target: G-protein coupled receptor 151 (Homo sapiens) (UniProt Q8TDV0); assay: RLU of GPR151 at 1.0 µM in the […] PRESTO-Tango GPCRome screen; conditions: Compound concentration 1.0 uM
# [2] = target: P2Y purinoceptor 4 (Homo sapiens) (UniProt P51582); assay: RLU of P2RY4 at 1.0 µM in the […] PRESTO-Tango GPCRome screen; conditions: Compound concentration 1.0 uM
# [3] = target: Proteinase-activated receptor 2 (Homo sapiens) (UniProt P55085); assay: RLU of F2RL1 at 1.0 µM in the […] PRESTO-Tango GPCRome screen; conditions: Compound concentration 1.0 uM
# [4] = target: Adhesion G protein-coupled receptor L4 (Homo sapiens) (UniProt Q9HBW9); assay: RLU of ELTD1 at 1.0 µM in the […] PRESTO-Tango GPCRome screen; conditions: Compound concentration 1.0 uM
# Adhesion G protein-coupled receptor L4 (Homo sapiens), sequence (Q9HBW9 whole entry): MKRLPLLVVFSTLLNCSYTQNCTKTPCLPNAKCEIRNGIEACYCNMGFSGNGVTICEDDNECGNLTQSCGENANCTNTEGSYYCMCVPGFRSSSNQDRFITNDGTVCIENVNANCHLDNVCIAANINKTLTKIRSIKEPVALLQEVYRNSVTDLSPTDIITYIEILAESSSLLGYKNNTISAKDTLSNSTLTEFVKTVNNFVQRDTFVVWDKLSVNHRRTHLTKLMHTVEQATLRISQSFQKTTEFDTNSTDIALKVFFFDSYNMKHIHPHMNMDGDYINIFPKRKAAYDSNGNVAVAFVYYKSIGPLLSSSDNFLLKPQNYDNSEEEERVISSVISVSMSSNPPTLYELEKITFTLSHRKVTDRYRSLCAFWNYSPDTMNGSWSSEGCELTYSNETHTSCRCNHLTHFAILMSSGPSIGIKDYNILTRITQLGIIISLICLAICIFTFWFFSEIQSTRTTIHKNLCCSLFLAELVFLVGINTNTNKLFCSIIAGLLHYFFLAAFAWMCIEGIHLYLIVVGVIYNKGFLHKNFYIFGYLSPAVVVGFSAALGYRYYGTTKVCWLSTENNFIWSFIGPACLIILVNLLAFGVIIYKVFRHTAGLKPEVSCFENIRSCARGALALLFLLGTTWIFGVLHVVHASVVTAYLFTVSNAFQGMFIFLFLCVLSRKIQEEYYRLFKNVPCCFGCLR
# [5] = target: Lysophosphatidic acid receptor 2 (Homo sapiens) (UniProt Q9HBW0); assay: RLU of LPAR2 at 1.0 µM in the […] PRESTO-Tango GPCRome screen; conditions: Compound concentration 1.0 uM
# Lysophosphatidic acid receptor 2 (Homo sapiens), sequence (Q9HBW0 whole entry): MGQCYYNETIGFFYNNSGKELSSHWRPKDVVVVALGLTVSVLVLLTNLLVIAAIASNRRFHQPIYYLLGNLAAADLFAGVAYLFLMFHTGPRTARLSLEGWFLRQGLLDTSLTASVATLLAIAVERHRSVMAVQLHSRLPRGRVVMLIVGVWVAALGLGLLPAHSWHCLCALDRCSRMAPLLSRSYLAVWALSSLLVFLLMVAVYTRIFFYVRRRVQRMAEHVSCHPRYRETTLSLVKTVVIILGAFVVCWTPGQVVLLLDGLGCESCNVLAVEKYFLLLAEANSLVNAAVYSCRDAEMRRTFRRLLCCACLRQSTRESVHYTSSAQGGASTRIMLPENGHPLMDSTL
# [6] = target: Neuropeptide FF receptor 1 (Homo sapiens) (UniProt Q9GZQ6); assay: RLU of NPFF1 at 1.0 µM in the […] PRESTO-Tango GPCRome screen; conditions: Compound concentration 1.0 uM
# [7] = target: Prostaglandin E2 receptor EP1 subtype (Homo sapiens) (UniProt P34995); assay: RLU of PTGER1 at 1.0 µM in the […] PRESTO-Tango GPCRome screen; conditions: Compound concentration 1.0 uM
# [8] = target: Leukotriene B4 receptor 1 (Homo sapiens, UniProt Q15722); assay: IP-One assay (LTB4R), agonist mode at up to 50 µM; assay type: functional; parameters: compound concentration < 50 uM
# [9] = target: Sphingosine 1-phosphate receptor 1 (Homo sapiens) (UniProt P21453); assay: RLU of S1PR1 at 1.0 µM in the […] PRESTO-Tango GPCRome screen; conditions: Compound concentration 1.0 uM
# [10] = target: Melanocortin receptor 3 (Homo sapiens) (UniProt P41968); assay: RLU of MC3R at 1.0 µM in the […] PRESTO-Tango GPCRome screen; conditions: Compound concentration 1.0 uM
# Melanocortin receptor 3 (Homo sapiens), sequence (P41968 whole entry): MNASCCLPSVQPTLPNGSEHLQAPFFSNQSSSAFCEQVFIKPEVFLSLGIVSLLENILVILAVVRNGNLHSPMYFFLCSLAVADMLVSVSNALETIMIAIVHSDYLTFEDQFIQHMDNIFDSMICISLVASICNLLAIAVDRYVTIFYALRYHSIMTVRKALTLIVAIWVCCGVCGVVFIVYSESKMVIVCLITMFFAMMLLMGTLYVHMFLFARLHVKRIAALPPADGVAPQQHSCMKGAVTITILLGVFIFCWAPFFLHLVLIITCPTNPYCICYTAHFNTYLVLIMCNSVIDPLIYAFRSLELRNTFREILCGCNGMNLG
# [11] = target: Probable G-protein coupled receptor 160 (Homo sapiens) (UniProt Q9UJ42); assay: RLU of GPR160 at 1.0 µM in the […] PRESTO-Tango GPCRome screen; conditions: Compound concentration 1.0 uM
# [12] = target: Probable G-protein coupled receptor 25 (Homo sapiens) (UniProt O00155); assay: RLU of GPR25 at 1.0 µM in the […] PRESTO-Tango GPCRome screen; conditions: Compound concentration 1.0 uM
# [13] = target: Prokineticin receptor 1 (Homo sapiens) (UniProt Q8TCW9); assay: RLU of PK1 at 1.0 µM in the […] PRESTO-Tango GPCRome screen; conditions: Compound concentration 1.0 uM
# [14] = target: G-protein coupled receptor 37-like 1 (Homo sapiens) (UniProt O60883); assay: RLU of GPR37L1 at 1.0 µM in the […] PRESTO-Tango GPCRome screen; conditions: Compound concentration 1.0 uM
# [15] = target: G-protein coupled receptor 52 (Homo sapiens) (UniProt Q9Y2T5); assay: RLU of GPR52 at 1.0 µM in the […] PRESTO-Tango GPCRome screen; conditions: Compound concentration 1.0 uM
# [16] = target: Thyrotropin receptor (Homo sapiens) (UniProt P16473); assay: RLU of TSHR at 1.0 µM in the […] PRESTO-Tango GPCRome screen; conditions: Compound concentration 1.0 uM
# Thyrotropin receptor (Homo sapiens), sequence (P16473 whole entry): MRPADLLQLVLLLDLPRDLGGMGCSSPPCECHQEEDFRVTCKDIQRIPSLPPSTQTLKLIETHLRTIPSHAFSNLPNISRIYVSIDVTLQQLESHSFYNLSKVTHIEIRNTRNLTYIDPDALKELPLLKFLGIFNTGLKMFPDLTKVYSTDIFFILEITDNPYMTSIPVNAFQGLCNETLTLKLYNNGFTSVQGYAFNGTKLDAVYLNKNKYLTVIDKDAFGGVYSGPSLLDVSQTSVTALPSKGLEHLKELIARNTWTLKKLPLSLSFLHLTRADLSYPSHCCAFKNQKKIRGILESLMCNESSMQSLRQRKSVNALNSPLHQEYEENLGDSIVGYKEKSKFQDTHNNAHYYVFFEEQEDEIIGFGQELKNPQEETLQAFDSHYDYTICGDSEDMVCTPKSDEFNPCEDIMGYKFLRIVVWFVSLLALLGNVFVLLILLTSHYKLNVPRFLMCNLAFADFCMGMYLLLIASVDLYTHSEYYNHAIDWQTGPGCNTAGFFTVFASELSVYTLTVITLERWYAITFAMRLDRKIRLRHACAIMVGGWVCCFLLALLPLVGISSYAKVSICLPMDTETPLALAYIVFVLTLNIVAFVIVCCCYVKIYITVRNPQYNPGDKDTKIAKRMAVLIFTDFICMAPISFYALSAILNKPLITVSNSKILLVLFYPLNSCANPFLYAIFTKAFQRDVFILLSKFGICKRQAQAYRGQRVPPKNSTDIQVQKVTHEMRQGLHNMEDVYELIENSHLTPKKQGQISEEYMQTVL
# [17] = target: Probable G-protein coupled receptor 101 (Homo sapiens) (UniProt Q96P66); assay: RLU of GPR101 at 1.0 µM in the […] PRESTO-Tango GPCRome screen; conditions: Compound concentration 1.0 uM
# [18] = target: Gastrin-releasing peptide receptor (Homo sapiens) (UniProt P30550); assay: RLU of GRPR at 1.0 µM in the Aequorin PRESTO-Tango GPCRome screen; conditions: Compound concentration 1.0 uM
# Gastrin-releasing peptide receptor (Homo sapiens), sequence (P30550 whole entry, looked up): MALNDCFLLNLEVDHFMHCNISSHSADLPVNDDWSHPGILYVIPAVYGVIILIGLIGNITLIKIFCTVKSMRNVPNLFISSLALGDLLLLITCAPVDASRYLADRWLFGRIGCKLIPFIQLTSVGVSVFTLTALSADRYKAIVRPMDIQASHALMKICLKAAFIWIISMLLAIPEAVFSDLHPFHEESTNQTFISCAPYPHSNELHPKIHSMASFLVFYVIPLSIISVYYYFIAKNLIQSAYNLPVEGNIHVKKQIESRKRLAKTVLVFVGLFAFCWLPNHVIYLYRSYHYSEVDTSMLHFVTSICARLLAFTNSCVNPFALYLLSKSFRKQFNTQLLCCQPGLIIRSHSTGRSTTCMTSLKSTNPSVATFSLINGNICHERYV
# [19] = target: Trace amine-associated receptor 2 (Homo sapiens) (UniProt Q9P1P5); assay: RLU of TAAR2 at 1.0 µM in the […] PRESTO-Tango GPCRome screen; conditions: Compound concentration 1.0 uM
# [20] = target: Alpha-2A adrenergic receptor (Homo sapiens) (UniProt P08913); assay: RLU of ADRA2A at 1.0 µM in the […] PRESTO-Tango GPCRome screen; conditions: Compound concentration 1.0 uM
# [21] = target: Bombesin receptor subtype-3 (Homo sapiens) (UniProt P32247); assay: RLU of BB3 at 1.0 µM in the […] PRESTO-Tango GPCRome screen; conditions: Compound concentration 1.0 uM
# [22] = target: Neuropeptide S receptor (Homo sapiens) (UniProt Q6W5P4); assay: RLU of NPS at 1.0 µM in the […] PRESTO-Tango GPCRome screen; conditions: Compound concentration 1.0 uM
# [23] = target: Adhesion G protein-coupled receptor A3 (Homo sapiens) (UniProt Q8IWK6); assay: RLU of GPR125 at 1.0 µM in the […] PRESTO-Tango GPCRome screen; conditions: Compound concentration 1.0 uM
# Adhesion G protein-coupled receptor A3 (Homo sapiens), sequence (Q8IWK6 whole entry): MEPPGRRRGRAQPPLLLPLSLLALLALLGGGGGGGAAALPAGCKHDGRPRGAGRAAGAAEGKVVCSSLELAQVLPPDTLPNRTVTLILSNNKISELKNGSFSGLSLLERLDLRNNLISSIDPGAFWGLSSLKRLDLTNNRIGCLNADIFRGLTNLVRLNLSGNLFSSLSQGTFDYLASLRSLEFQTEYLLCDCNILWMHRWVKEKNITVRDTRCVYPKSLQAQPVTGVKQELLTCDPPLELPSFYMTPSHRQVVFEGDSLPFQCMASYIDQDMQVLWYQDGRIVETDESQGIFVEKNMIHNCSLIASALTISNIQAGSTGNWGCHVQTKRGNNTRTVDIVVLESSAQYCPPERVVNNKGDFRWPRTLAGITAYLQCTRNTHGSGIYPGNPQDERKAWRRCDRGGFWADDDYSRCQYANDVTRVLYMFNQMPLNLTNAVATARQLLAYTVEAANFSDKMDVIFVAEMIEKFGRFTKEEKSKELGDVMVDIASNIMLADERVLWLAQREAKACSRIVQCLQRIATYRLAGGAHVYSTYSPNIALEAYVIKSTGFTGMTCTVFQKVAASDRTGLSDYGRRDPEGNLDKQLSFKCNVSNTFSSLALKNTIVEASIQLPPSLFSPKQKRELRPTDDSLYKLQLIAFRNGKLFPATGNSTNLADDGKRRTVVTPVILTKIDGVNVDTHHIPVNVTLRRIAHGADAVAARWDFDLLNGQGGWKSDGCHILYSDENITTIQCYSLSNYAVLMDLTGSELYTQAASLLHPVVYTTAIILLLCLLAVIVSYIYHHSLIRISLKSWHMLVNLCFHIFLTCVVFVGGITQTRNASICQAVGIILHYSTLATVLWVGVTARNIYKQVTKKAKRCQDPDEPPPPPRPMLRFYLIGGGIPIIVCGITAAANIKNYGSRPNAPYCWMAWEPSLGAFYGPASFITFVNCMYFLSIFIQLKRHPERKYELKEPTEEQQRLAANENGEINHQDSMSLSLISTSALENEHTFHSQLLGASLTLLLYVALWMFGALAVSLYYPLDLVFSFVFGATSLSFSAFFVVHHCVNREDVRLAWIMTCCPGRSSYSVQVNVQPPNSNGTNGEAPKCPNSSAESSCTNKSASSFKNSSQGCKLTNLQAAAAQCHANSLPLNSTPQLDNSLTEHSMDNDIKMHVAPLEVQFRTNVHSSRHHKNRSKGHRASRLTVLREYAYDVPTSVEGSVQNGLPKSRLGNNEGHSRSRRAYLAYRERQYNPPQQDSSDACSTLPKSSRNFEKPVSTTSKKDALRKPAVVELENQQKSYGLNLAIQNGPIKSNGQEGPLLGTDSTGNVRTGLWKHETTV
# [24] = target: Putative P2Y purinoceptor 10 (Homo sapiens) (UniProt O00398); assay: RLU of P2RY10 at 1.0 µM in the […] PRESTO-Tango GPCRome screen; conditions: Compound concentration 1.0 uM
# [25] = target: Vasopressin V1a receptor (Homo sapiens) (UniProt P37288); assay: RLU of AVPR1A at 1.0 µM in the […] PRESTO-Tango GPCRome screen; conditions: Compound concentration 1.0 uM
# [26] = target: Neurotensin receptor type 2 (Homo sapiens) (UniProt O95665); assay: RLU of NTSR2 at 1.0 µM in the […] PRESTO-Tango GPCRome screen; conditions: Compound concentration 1.0 uM
# [27] = target: Probable G-protein coupled receptor 173 (Homo sapiens) (UniProt Q9NS66); assay: RLU of GPR173 at 1.0 µM in the […] PRESTO-Tango GPCRome screen; conditions: Compound concentration 1.0 uM
# [28] = target: Probable G-protein coupled receptor 63 (Homo sapiens) (UniProt Q9BZJ6); assay: RLU of GPR63 at 1.0 µM in the […] PRESTO-Tango GPCRome screen; conditions: Compound concentration 1.0 uM
# Probable G-protein coupled receptor 63 (Homo sapiens), sequence (Q9BZJ6 whole entry): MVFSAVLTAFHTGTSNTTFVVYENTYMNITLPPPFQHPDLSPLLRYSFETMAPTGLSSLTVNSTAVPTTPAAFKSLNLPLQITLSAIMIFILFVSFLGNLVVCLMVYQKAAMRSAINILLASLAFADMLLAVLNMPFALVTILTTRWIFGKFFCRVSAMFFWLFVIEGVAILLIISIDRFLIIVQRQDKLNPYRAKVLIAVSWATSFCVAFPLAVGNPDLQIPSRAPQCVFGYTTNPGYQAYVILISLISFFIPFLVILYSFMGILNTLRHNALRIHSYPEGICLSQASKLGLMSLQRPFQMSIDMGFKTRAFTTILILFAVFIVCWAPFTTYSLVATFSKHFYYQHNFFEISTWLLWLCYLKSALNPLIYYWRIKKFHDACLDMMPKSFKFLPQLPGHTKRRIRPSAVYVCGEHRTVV
# [29] = target: 5-hydroxytryptamine receptor 1D (Homo sapiens) (UniProt P28221); assay: RLU of HTR1D at 1.0 µM in the […] PRESTO-Tango GPCRome screen; conditions: Compound concentration 1.0 uM
# 5-hydroxytryptamine receptor 1D (Homo sapiens), sequence (P28221 whole entry): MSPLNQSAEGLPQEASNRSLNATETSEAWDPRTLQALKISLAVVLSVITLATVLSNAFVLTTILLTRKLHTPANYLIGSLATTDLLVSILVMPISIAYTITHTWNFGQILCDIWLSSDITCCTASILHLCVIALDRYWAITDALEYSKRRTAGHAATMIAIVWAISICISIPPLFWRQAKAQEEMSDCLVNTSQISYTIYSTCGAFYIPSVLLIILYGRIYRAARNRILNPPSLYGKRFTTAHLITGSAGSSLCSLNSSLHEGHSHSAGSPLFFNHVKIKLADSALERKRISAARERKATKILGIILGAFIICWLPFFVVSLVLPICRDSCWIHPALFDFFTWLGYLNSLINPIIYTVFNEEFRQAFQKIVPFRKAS
# [30] = target: C-C chemokine receptor type 3 (Homo sapiens) (UniProt P51677); assay: RLU of CCR3 at 1.0 µM in the […] PRESTO-Tango GPCRome screen; conditions: Compound concentration 1.0 uM
# C-C chemokine receptor type 3 (Homo sapiens), sequence (P51677 whole entry): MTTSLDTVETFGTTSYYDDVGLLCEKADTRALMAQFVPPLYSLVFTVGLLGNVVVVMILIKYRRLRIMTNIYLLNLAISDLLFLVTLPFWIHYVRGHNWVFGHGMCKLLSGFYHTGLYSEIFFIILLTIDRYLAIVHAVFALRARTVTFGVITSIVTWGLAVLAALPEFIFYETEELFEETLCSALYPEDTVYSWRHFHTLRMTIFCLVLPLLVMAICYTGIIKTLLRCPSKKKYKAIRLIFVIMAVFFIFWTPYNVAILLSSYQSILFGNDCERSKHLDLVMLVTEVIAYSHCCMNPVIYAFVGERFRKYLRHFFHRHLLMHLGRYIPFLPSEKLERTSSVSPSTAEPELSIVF
# [31] = target: Adhesion G-protein coupled receptor G1 (Homo sapiens) (UniProt Q9Y653); assay: RLU of GPR56 at 1.0 µM in the […] PRESTO-Tango GPCRome screen; conditions: Compound concentration 1.0 uM
# [32] = target: Calcitonin receptor (Homo sapiens) (UniProt P30988); assay: RLU of CALCRb at 1.0 µM in the […] PRESTO-Tango GPCRome screen; conditions: Compound concentration 1.0 uM
# [33] = target: Calcitonin gene-related peptide type 1 receptor (Homo sapiens) (UniProt Q16602); assay: RLU of CALCRL at 1.0 µM in the […] PRESTO-Tango GPCRome screen; conditions: Compound concentration 1.0 uM
# [34] = target: Mas-related G-protein coupled receptor member G (Homo sapiens) (UniProt Q86SM5); assay: RLU of MRGPRG at 1.0 µM in the […] PRESTO-Tango GPCRome screen; conditions: Compound concentration 1.0 uM
# [35] = target: G-protein coupled estrogen receptor 1 (Homo sapiens) (UniProt Q99527); assay: RLU of GPER at 1.0 µM in the […] PRESTO-Tango GPCRome screen; conditions: Compound concentration 1.0 uM
smiles,measurement,setting,value
CCCCC(=O)N1CC2(C1)CN(c1ccccc1-c1nnn[nH]1)C2,RLU,[1],12900
same,RLU,[2],-311
same,RLU,[3],-1270
same,RLU,[4],1170
same,RLU,[5],-80
same,RLU,[6],4030
same,RLU,[7],-390
same,EC50,[8],> 50 µM (not active)
same,RLU,[9],11000
same,RLU,[10],18.8
same,RLU,[11],1900
same,RLU,[12],-1210
same,RLU,[13],10800
same,RLU,[14],153000
same,RLU,[15],86500
same,RLU,[16],-406
same,RLU,[17],-2170
same,RLU,[18],-1250
same,RLU,[19],390
same,RLU,[20],10100
same,RLU,[21],-2040
same,RLU,[22],3790
same,RLU,[23],-4100
same,RLU,[24],-82.4
same,RLU,[25],5670
same,RLU,[26],634
same,RLU,[27],-36.4
same,RLU,[28],-87.9
same,RLU,[29],-12300
same,RLU,[30],2420
same,RLU,[31],14100
same,RLU,[32],-5810
same,RLU,[33],2370
same,RLU,[34],-560
same,RLU,[35],-607

# Source: ChEMBL document CHEMBL5723582, “Data for DCP probe T-10430” (2024)
